Source: US20100022637A1, “IDENTIFICATION OF ANTI-CANCER COMPOUNDS AND COMPOUNDS FOR TREATING HUNTINGTON'S DISEASE AND METHODS OF TREATMENT THEREOF” (THE TRUSTEES OF COLUMBIA UNIVERSITY IN THE CITY OF NEW YORK, priority 2005, published 2010)
Blank lines part the entries; values can stand above or below the compound they belong to.

What was measured:
[1] = tested on: N548 mutant cells; assay: cells; conditions: for Activity: scale not defined; for maximal fold induction: read-out: N548 Mut: Max, maximum rescue expressed as fold over DMSO treated N548 mutant cells
Description: Embryonic rat striatal neurons were conditionally immortalized by stably transfecting a temperature-sensitive SV40 large T-antigen (T-ag) to generate the ST14A cell line. ST14A cells proliferate at the permissive temperature (33° C.), but stop dividing at 39° C., as a result of T-ag degradation. […] As htt protein context modulates polyQ toxicity, testing these different length htt proteins could provide insight into the basis for context dependence.
ST14A Assay System: Calcein acetoxylmethyl ester (AM) (Molecular Probes, Eugene, Oreg.) is a non-fluorescent, membrane-permeable compound that is cleaved by intracellular esterases, which subsequently forms the anionic, fluorescent compound, calcein, that cannot permeate the cell membrane. […] A fluorescence viability assay, that is based on conversion of a non-fluorescent substrate (calcein AM) to a fluorescent product by nonspecific esterases in live cells, was employed to monitor cell death in wild type (wt) ST14A-Htt and mut ST14A-Htt cell lines. Cell death is indicated by a decrease in fluorescence. […] 3 μl of each compound was transferred from daughter plates to triplicate assay plates for a final assay concentration of 4 μg/ml in 0.1% DMSO (10 μM for NINDS compounds). Cells were incubated at 33° C. for 3 h to enhance attachment and then shifted to 39° C. (with 5% CO2). After 3 days (d), cells were washed 10 times with phosphate buffered saline (PBS) leaving 20 μl residual PBS per well, and 20 μl of 2 μg/ml calcein AM (Molecular probes) in PBS was added per well. […] The fluorescence intensity in each well was normalized to the median of each plate. The median normalized fluorescence of each triplicate assay wells was determined. A well with more than 50% increase in intensity above the median signal intensity was considered a “hit.”
Assay Development: An assay was developed for detecting mutant htt-induced cell death in ST14A cells in a 384-well plate format. A calcein AM-based method was used to detect cell viability, and optimized the cell number and time course for this method. […] A cell number titration was performed to determine the cell density at which calcein fluorescence was not saturated and the coefficient of variation (CV) was low (FIG. 14A-B). A low CV is critical for a high-throughput assay as it decreases noise and enhances sensitivity. […] Next, the kinetics of the fluorescence signal were determined.
Next, the serum concentrations that induce cell death in these cells were determined. Cells were seeded in decreasing serum (IFS) concentrations (5 to 0%), and cell viability was assayed after 3 d using the calcein AM assay (FIG. 14E).
A Z′ value of greater than 0 is required for a usable assay, with a maximum value of 1.0 for an ideal assay. For the assay, calcein fluorescence was used on the day of seeding to represent 100% rescue. The difference in calcein fluorescence signal on the day of seeding and after different number of days under serum deprivation was determined and used to calculate the Z′ factor. […] About 47,000 compounds were assayed in a 384-well plate format in triplicate to enhance the reliability of the primary screen.

[2] = Rescue and toxicity of Compound 164 and analogs (Table 4); conditions: for TC50: Table 4, toxicity
[3] = nonselective hits (rescue also parental ST14A), 0.5% IFS, 39° C., 3 d
[4] = Rattus norvegicus, read-out: EC50 based on activity in N548 mutant cells

- EC50 ([1]; Rattus norvegicus, ST14A, 72 h): 500 nM
SMILES: CCCC1O[C@@H]2C[C@H]3[C@@H]4CCC5=CC(=O)C=C[C@]5(C)[C@H]4[C@@H](O)C[C@]3(C)[C@]2(C(=O)CO)O1 (stereo partly drawn) [Budesonide, reference compound]
- Activity ([1]; nonselective hits): 2

- EC50 ([1]; Rattus norvegicus, ST14A, 72 h): 1000 nM
SMILES: CCOC(=O)C(C)(C)Oc1ccc(Cl)cc1 [Clofibrate, reference compound]
- Activity ([1]; nonselective hits): 2

SMILES: O=C(O)c1cc([N+](=O)[O-])ccc1NCCCc1ccccc1 [Compound 2-NPPB, reference compound]
- EC50 [1, 3]: 10000 nM
- Activity ([1]; nonselective hits): 1.5
- CC50 ([1]; read-out: TC50, nonselective hits, maximum concentration tested 80 μM): 40000 nM

SMILES: CC[C@@]1(C)CC(CCN(Cc2ccco2)C(C)=O)(c2ccccc2)CCO1 (stereo partly drawn) [Compound 164-1]
- EC50 [2]: 2000 nM
- TC50 [2]: 8000 nM

SMILES: Cc1ccc(C2(CCNC(=O)c3ccc(Br)o3)CCOC(C(C)C)C2)cc1 (stereo not drawn) [Compound 164-2]
- EC50 [2]: 440 nM
- Max % Toxicity ([2]; Table 4, cell model not stated): 53.69%

SMILES: CCC(=O)N(CCC(Cc1ccccc1)C1CCOC(C)(C)C1)Cc1ccco1 (stereo not drawn) [Compound 164-3]
- EC50 [2]: 200 nM
- TC50 [2]: 8000 nM
- Max % Toxicity ([2]; Table 4, cell model not stated): 56.80%

SMILES: CC(c1ccccc1)N(CCC(Cc1ccccc1)C1COCC(C)(C)C1)C(=O)c1ccco1 (stereo not drawn) [Compound 164-4]
- TC50 [2]: 400 nM
- Max % Toxicity ([2]; Table 4, cell model not stated): 64.22%

SMILES: COc1ccc(CN(CCC(c2ccccc2)C2CCOC(C)(C)C2)C(=O)c2ccco2)cc1OC (stereo not drawn) [Compound 164-5, N-(3,4-dimethoxybenzyl)-N-[3-(2,2-dimethyltetrahydro-2H-pyran-4-yl)-3-phenylpropyl]-2-furamide]
- EC50 [2]: 200 nM
- TC50 [2]: 6000 nM
- Max % Toxicity ([2]; Table 4, cell model not stated): 18.43%

SMILES: COc1ccc(CN(CCC2(c3ccc(C)cc3)CCOC(C)(C)C2)C(=O)c2ccco2)cc1 (stereo not drawn) [Compound 164-6]
- EC50 [2]: 100 nM
- TC50 [2]: 3000 nM
- Max % Toxicity ([2]; Table 4, cell model not stated): 60.14%

SMILES: COc1ccc(CN(CCC(c2ccc(OC(C)C)cc2)C(C)C)C(=O)c2ccco2)cc1 (stereo not drawn) [Compound 164-7]
- EC50 [2]: 100 nM
- TC50 [2]: 400 nM
- Max % Toxicity ([2]; Table 4, cell model not stated): 63.90%

SMILES: COc1ccc(CN(CCC2(c3ccccc3)CCOC(C)(C)C2)C(C)=O)cc1OC (stereo not drawn) [Compound 164-9]
- Max % Rescue ([2]; Table 4, cell model not stated): 28.56%
- Max % Toxicity ([2]; Table 4, cell model not stated): 19.60%

SMILES: COc1cc([C@@H]2c3cc4c(cc3[C@H](O)[C@H]3COC(=O)[C@H]23)OCO4)cc(OC)c1OC [Podophyllotoxin, reference compound]
- maximal fold induction ([1]; Rattus norvegicus, 72 h): 2.5
- EC50 [1, 4]: 25 nM

SMILES: CCCCC[C@H](O)/C=C/[C@H]1[C@H](O)CC(=O)[C@@H]1C/C=C\CCCC(=O)O [Prostaglandin E2, reference compound]
- EC50 [1, 3]: 100 nM
- Activity ([1]; nonselective hits): 2

- EC50 ([1]; Rattus norvegicus, ST14A, 72 h): 500 nM
SMILES: C[C@H](O)[C@H](O)[C@H]1CNc2nc(N)[nH]c(=O)c2N1 [Tetrahydrobiopterin, reference compound]
- Activity ([1]; nonselective hits): 2.5

- EC50 ([1]; Rattus norvegicus, ST14A, 72 h): 600 nM
SMILES: CC1=C(/C=C/C(C)=C/C=C/C(C)=C/C(=O)O)C(C)(C)CCC1 [Tretinoin, reference compound]
- Activity ([1]; nonselective hits): 2.5

SMILES: CC1OC(=O)C(C(C)C)NC(=O)C(C(C)C)OC(=O)C(C(C)C)NC(=O)C(C)OC(=O)C(C(C)C)NC(=O)C(C(C)C)OC(=O)C(C(C)C)NC(=O)C(C)OC(O)C(C(C)C)NC(=O)C(C(C)C)OC(=O)C(C(C)C)NC1=O (stereo not drawn) [Valinomycin A, reference compound]
- maximal fold induction ([1]; Rattus norvegicus, 72 h): 2.5
- EC50 [1, 4]: 150 nM

SMILES: CC[C@]1(O)C[C@H]2CN(CCc3c([nH]c4ccccc34)[C@@](C(=O)OC)(c3cc4c(cc3OC)N(C=O)[C@H]3[C@@](O)(C(=O)OC)[C@H](OC(C)=O)[C@]5(CC)C=CCN6CC[C@]43[C@@H]65)C2)C1 [Vincristine, reference compound]
- N548 Mut: Max, maximum rescue expressed as fold over DMSO treated N548 mutant cells ([1]; 0.5% IFS, 39° C., 3 d): 2.5 fold
- EC50 ([1]; read-out: EC50 based on activity in N548 mutant cells): 40 nM

- EC50 ([1]; Rattus norvegicus, ST14A, 72 h): 5000 nM
SMILES: CCCOc1ccccc1-c1nc2nn[nH]c2c(=O)[nH]1 [Zaprinast, reference compound]
- Activity ([1]; nonselective hits): 1.5

- EC50 [1, 4]: 4 µg/mL
SMILES: CCCc1cc(OC(=O)C(CC)c2ccccc2)n(-c2cccc(F)c2)n1 (stereo not drawn) [revertin-1b]
- selectivity profile of cell death rescue in panel of htt expressing cell lines ([1]; N63, N548, FL htt cell lines, in words): selectively rescued cell death in all mutant htt-expressing cell lines
- maximal fold induction ([1]; Rattus norvegicus, 72 h): 25

- EC50 [1, 4]: 2 µg/mL
SMILES: COc1ccccc1C(CCN(C(C)=O)C(C)c1ccccc1)C1CCC(C)(C)OC1 (stereo not drawn) [revertin-3]
- maximal fold induction ([1]; Rattus norvegicus, 72 h): 4

- EC50 [1, 4]: 4 µg/mL
SMILES: COc1cc(CC(=O)NC(C)C2C(=O)CC3C2C3(C)C)cc(OC)c1OC (stereo not drawn) [revertin-4]
- maximal fold induction ([1]; Rattus norvegicus, 72 h): 1.5
